# Laboratory results from US12077503B2, “Substituted cyclic amides and their use as herbicides” (FMC CORPORATION, priority 2015, dated 2024).
# What was measured:
# Format in all cases: in vivo
# [1] = tested on: pigweed (Amaranthus retroflexus); assay: Test A postemergence
# Outline: (§1)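 Visual injury, scored on a 0–100 scale relative to untreated controls, was recorded about 10 d after application. Treatments were a preemergence soil spray over planted seeds or a postemergence spray on plants at the one- to two-leaf stage, 2 to 10 cm tall, all in loam soil–sand blend in the greenhouse.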
# corn (Zea mays) = assay: Test A postemergence
# Outline: as §1
# [2] = tested on: ryegrass, Italian (Italian ryegrass, Lolium multiflorum); assay: Test A postemergence
# Outline: as §1
# [3] = tested on: blackgrass (Alopecurus myosuroides); assay: Test A postemergence
# Outline: as §1
# [4] = tested on: Galium (catchweed bedstraw, Galium aparine); assay: Test A postemergence
# Outline: as §1
# [5] = tested on: giant foxtail (Setaria faberii); assay: Test A postemergence
# Outline: as §1
# Kochia (Kochia scoparia) [6] = assay: Test A postemergence
# Outline: as §1
# [7] = tested on: ragweed (common ragweed, Ambrosia elatior); assay: Test A postemergence
# Outline: as §1
# [8] = tested on: wheat (Triticum aestivum); assay: Test A postemergence
# Outline: as §1
# [9] = tested on: barnyardgrass (Echinochloa crus-galli); assay: Test A postemergence
# Outline: as §1
# rice (Oryra sativa) = assay: Test B flooded paddy test; details: Flood, 250 g ai/ha; 0 to 100 scale where 0 is no effect and 100 is complete control; 13 to 15 d
# Outline: (§2)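 Rating scale 0–100 (visual, vs untreated controls) after a 13–15 d greenhouse period; application to the flood layer, 3 cm above soil and maintained; plants at 2-leaf stage when treated.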
# [10] = tested on: sedge, umbrella (small-flower umbrella sedge, Cyperus difformis); assay: Test B flooded paddy test; details: Flood, 250 g ai/ha; 0 to 100 scale where 0 is no effect and 100 is complete control; 13 to 15 d
# Outline: as §2
# [11] = tested on: ducksalad (Heteranthera limosa); assay: Test B flooded paddy test; details: Flood, 250 g ai/ha; 0 to 100 scale where 0 is no effect and 100 is complete control; 13 to 15 d
# Outline: as §2
# [12] = tested on: barnyardgrass (Echinochloa crus-galli); assay: Test B flooded paddy test; details: Flood, 250 g ai/ha; 0 to 100 scale where 0 is no effect and 100 is complete control; 13 to 15 d
# Outline: as §2
# [13] = tested on: pigweed (Amaranthus retroflexus); assay: Test A preemergence
# [14] = tested on: ryegrass, Italian (Italian ryegrass, Lolium multiflorum); assay: Test A preemergence
# Outline: as §1
# [15] = tested on: giant foxtail (Setaria faberii); assay: Test A preemergence
# Outline: as §1
# Kochia (Kochia scoparia) [16] = assay: Test A preemergence
# Outline: as §1
# [17] = tested on: ragweed (common ragweed, Ambrosia elatior); assay: Test A preemergence
# Outline: as §1
# [18] = tested on: barnyardgrass (Echinochloa crus-galli); assay: Test A preemergence
# Outline: as §1
# [19] = 125 g ai/ha, postemergence, visual rating after approx. 10 d, 0 to 100 scale (0 no effect, 100 complete control)
# [20] = Postemergence, 500 g ai/ha, 0 to 100 scale where 0 is no effect and 100 is complete control
# [21] = 125 g ai/ha, Preemergence, visual injury after approximately 10 d, 0 to 100 scale where 0 is no effect and 100 is complete control
# [22] = 500 g ai/ha, preemergence, 0 to 100 scale, 0 = no effect, 100 = complete control
# [23] = 125 g ai/ha, postemergence, visual injury rating on 0 to 100 scale (0 no effect, 100 complete control), approx. 10 d
# [24] = 500 g ai/ha, postemergence, 0 to 100 scale, 0 no effect, 100 complete control
# [25] = Preemergence, 500 g ai/ha, visual injury approx. 10 d
# [26] = 125 g ai/ha, preemergence, 0 to 100 scale (0 no effect, 100 complete control)
compound,measurement,setting,value
O=C1NCC(c2ccc(F)cc2F)C1C(=O)Nc1ccccc1F (stereo not drawn) [Compound 620],"Plant response rating, Pigweed",[1]; [19],0
same,"Plant response rating, Pigweed",[1]; [20],0
same,"Plant response rating, Corn",corn (Zea mays); [19],0
same,"Plant response rating, Corn",corn (Zea mays); [20],0
same,"Plant response rating, Ryegrass, Italian",[2]; [19],0
same,"Plant response rating, Ryegrass, Italian",[2]; [20],0
same,"Plant response rating, Blackgrass",[3]; [19],0
same,"Plant response rating, Blackgrass",[3]; [20],0
same,"Plant response rating, Galium",[4]; [19],0
same,"Plant response rating, Galium",[4]; [20],20
same,"Plant response rating, Foxtail, Giant",[5]; [19],30
same,"Plant response rating, Foxtail, Giant",[5]; [20],50
same,"Plant response rating, Kochia",Kochia (Kochia scoparia) [6]; [19],0
same,"Plant response rating, Kochia",Kochia (Kochia scoparia) [6]; [20],0
same,"Plant response rating, Ragweed",[7]; [19],0
same,"Plant response rating, Ragweed",[7]; [20],0
same,"Plant response rating, Wheat",[8]; [19],0
same,"Plant response rating, Wheat",[8]; [20],0
same,"Plant response rating, Barnyardgrass",[9]; [19],20
same,"Plant response rating, Barnyardgrass",[9]; [20],60
same,"Plant response rating, Rice",rice (Oryra sativa),0
same,"Plant response rating, Sedge, Umbrella",[10],0
same,"Plant response rating, Ducksalad",[11],65
same,"Plant response rating, Barnyardgrass",[12],10
same,"Plant response rating, Pigweed",[13]; [21],0
same,"Plant response rating, Pigweed",[13]; [22],0
same,"Plant response rating, Ryegrass, Italian",[14]; [21],0
same,"Plant response rating, Ryegrass, Italian",[14]; [22],0
same,"Plant response rating, Foxtail, Giant",[15]; [21],80
same,"Plant response rating, Foxtail, Giant",[15]; [22],90
same,"Plant response rating, Kochia",Kochia (Kochia scoparia) [16]; [21],0
same,"Plant response rating, Kochia",Kochia (Kochia scoparia) [16]; [22],20
same,"Plant response rating, Ragweed",[17]; [21],0
same,"Plant response rating, Ragweed",[17]; [22],0
same,"Plant response rating, Barnyardgrass",[18]; [21],70
same,"Plant response rating, Barnyardgrass",[18]; [22],80
CC(C)=CCN1CC(c2cccc(C(F)(F)F)c2)C(C(=O)Nc2ccccc2F)C1=O (stereo not drawn) [Compound 478],Pigweed plant response rating,[1]; [23],0
same,"Plant response rating, Pigweed",[1]; [20],0
same,Corn plant response rating,corn (Zea mays); [23],0
same,"Plant response rating, Corn",corn (Zea mays); [24],0
same,"Ryegrass, Italian plant response rating",[2]; [23],0
same,"Plant response rating, Ryegrass, Italian",[2]; [20],20
same,Blackgrass plant response rating,[3]; [23],0
same,"Plant response rating, Blackgrass",[3]; [24],20
same,Galium plant response rating,[4]; [23],0
same,"Plant response rating, Galium",[4]; [20],0
same,"Foxtail, Giant plant response rating",[5]; [23],20
same,"Plant response rating, Foxtail, Giant",[5]; [20],60
same,Kochia plant response rating,Kochia (Kochia scoparia) [6]; [23],0
same,"Plant response rating, Kochia",Kochia (Kochia scoparia) [6]; [20],0
same,Ragweed plant response rating,[7]; [23],0
same,"Plant response rating, Ragweed",[7]; [20],0
same,Wheat plant response rating,[8]; [23],0
same,"Plant response rating, Wheat",[8]; [20],20
same,Barnyardgrass plant response rating,[9]; [23],30
same,"Plant response rating, Barnyardgrass",[9]; [24],60
same,"Plant response rating, Rice",rice (Oryra sativa),0
same,"Plant response rating, Sedge, Umbrella",[10],0
same,"Plant response rating, Ducksalad",[11],0
same,"Plant response rating, Barnyardgrass",[12],0
same,"Plant response rating, Pigweed",[13]; [21],0
same,"Pigweed plant response rating (0 to 100 scale, 0 is no effect, 100 is complete control)",[13]; [25],0
same,"Plant response rating, Ryegrass, Italian",[14]; [21],0
same,"Ryegrass, Italian plant response rating (0 to 100 scale, 0 is no effect, 100 is complete control)",[14]; [25],0
same,"Plant response rating, Foxtail, Giant",[15]; [26],70
same,"Foxtail, Giant plant response rating (0 to 100 scale, 0 is no effect, 100 is complete control)",[15]; [25],80
same,"Plant response rating, Kochia",Kochia (Kochia scoparia) [16]; [26],0
same,"Kochia plant response rating (0 to 100 scale, 0 is no effect, 100 is complete control)",Kochia (Kochia scoparia) [16]; [25],0
same,"Plant response rating, Ragweed",[17]; [21],0
same,"Ragweed plant response rating (0 to 100 scale, 0 is no effect, 100 is complete control)",[17]; [25],0
same,"Plant response rating, Barnyardgrass",[18]; [26],20
same,"Barnyardgrass plant response rating (0 to 100 scale, 0 is no effect, 100 is complete control)",[18]; [25],60
